Laboratory results taken from PubChem BioAssay AID1259407 (Chemical Carcinogenesis Research Information System (CCRIS), 2018).
Active and inactive are the calls of the source. The rule behind the calls is not given here.

Tested on: CCRIS mutagenicity, Ames/micronucleus/aberration tests
Test: CCRIS mutagenicity studies
[1] = Test System: AMES SALMONELLA TYPHIMURIUM, Strain/Indicator: TA98, Metabolic Activation: HAMSTER, LIVER, S-9, AROCLOR 1254 (10%), Method: PREINCUBATION
[2] = Test System: AMES SALMONELLA TYPHIMURIUM, Strain/Indicator: TA98, Metabolic Activation: NONE, Method: PREINCUBATION
[3] = Test System: AMES SALMONELLA TYPHIMURIUM, Strain/Indicator: TA98, Metabolic Activation: RAT, LIVER, S-9, AROCLOR 1254 (10%), Method: PREINCUBATION
[4] = Test System: AMES SALMONELLA TYPHIMURIUM, Strain/Indicator: TA100, Metabolic Activation: HAMSTER, LIVER, S-9, AROCLOR 1254 (10%), Method: PREINCUBATION
[5] = Test System: AMES SALMONELLA TYPHIMURIUM, Strain/Indicator: TA100, Metabolic Activation: NONE, Method: PREINCUBATION
[6] = Test System: AMES SALMONELLA TYPHIMURIUM, Strain/Indicator: TA100, Metabolic Activation: RAT, LIVER, S-9, AROCLOR 1254 (10%), Method: PREINCUBATION
[7] = Test System: AMES SALMONELLA TYPHIMURIUM, Strain/Indicator: TA1535, Metabolic Activation: HAMSTER, LIVER, S-9, AROCLOR 1254 (10%), Method: PREINCUBATION
[8] = Test System: AMES SALMONELLA TYPHIMURIUM, Strain/Indicator: TA1535, Metabolic Activation: NONE, Method: PREINCUBATION
[9] = Test System: AMES SALMONELLA TYPHIMURIUM, Strain/Indicator: TA1535, Metabolic Activation: RAT, LIVER, S-9, AROCLOR 1254 (10%), Method: PREINCUBATION
[10] = Test System: AMES SALMONELLA TYPHIMURIUM, Strain/Indicator: TA1537, Metabolic Activation: HAMSTER, LIVER, S-9, AROCLOR 1254 (10%), Method: PREINCUBATION
[11] = Test System: AMES SALMONELLA TYPHIMURIUM, Strain/Indicator: TA1537, Metabolic Activation: NONE, Method: PREINCUBATION
[12] = Test System: AMES SALMONELLA TYPHIMURIUM, Strain/Indicator: TA1537, Metabolic Activation: RAT, LIVER, S-9, AROCLOR 1254 (10%), Method: PREINCUBATION
[13] = Test System: AMES SALMONELLA TYPHIMURIUM, Strain/Indicator: TA98, Metabolic Activation: NONE, Method: STANDARD PLATE
[14] = Test System: AMES SALMONELLA TYPHIMURIUM, Strain/Indicator: TA98, Metabolic Activation: RAT, LIVER, S-9, AROCLOR 1254, Method: STANDARD PLATE
[15] = Test System: AMES SALMONELLA TYPHIMURIUM, Strain/Indicator: TA100, Metabolic Activation: NONE, Method: STANDARD PLATE
[16] = Test System: AMES SALMONELLA TYPHIMURIUM, Strain/Indicator: TA100, Metabolic Activation: RAT, LIVER, S-9, AROCLOR 1254, Method: STANDARD PLATE
[17] = Test System: AMES SALMONELLA TYPHIMURIUM, Strain/Indicator: TA1538, Metabolic Activation: RAT, LIVER, S-9, AROCLOR 1254, Method: STANDARD PLATE

In the case of `O=C1OC(=O)c2ccccc21`, the mutagenic call (End Point: IN VITRO CHROMOSOMAL ABERRATIONS, Test System: CHINESE HAMSTER OVARY CELLS, Metabolic Activation: NONE) is reported as “inactive; negative”, the mutagenic call (End Point: IN VITRO CHROMOSOMAL ABERRATIONS, Test System: CHINESE HAMSTER OVARY CELLS, Metabolic Activation: RAT, LIVER, S-9, AROCLOR 1254) is reported as “inactive; negative” and the mutagenic call (End Point: IN VITRO CHROMOSOMAL ABERRATIONS, Test System: CHO CELLS, Metabolic Activation: NONE) is reported as “active; positive; precipitation occurred at 10 mm”. For the same molecule, the mutagenic call [1] was “inactive; negative”, the mutagenic call [2] was “inactive; negative” and the mutagenic call (Test System: AMES SALMONELLA TYPHIMURIUM, Strain/Indicator: TA98, Metabolic Activation: RAT LIVER S-9, PHENOBARBITAL AND BETA-NAPHTHOFLAVONE, Method: PREINCUBATION) was “inactive; negative”. For the same molecule, the mutagenic call [3] was “inactive; negative”, the mutagenic call [4] was “inactive; negative” and the mutagenic call [5] was “inactive; negative”. The mutagenic call (Test System: AMES SALMONELLA TYPHIMURIUM, Strain/Indicator: TA100, Metabolic Activation: RAT LIVER S-9, PHENOBARBITAL AND BETA-NAPHTHOFLAVONE, Method: PREINCUBATION) was “inactive; negative”, the mutagenic call [6] was “inactive; negative” and the mutagenic call [7] was “inactive; negative”. The mutagenic call [8] was “inactive; negative”, the mutagenic call (Test System: AMES SALMONELLA TYPHIMURIUM, Strain/Indicator: TA1535, Metabolic Activation: RAT LIVER S-9, PHENOBARBITAL AND BETA-NAPHTHOFLAVONE, Method: PREINCUBATION) was “inactive; negative” and the mutagenic call [9] was “inactive; negative”. For the same molecule, the mutagenic call [10] was “inactive; negative”, the mutagenic call [11] was “inactive; negative” and the mutagenic call (Test System: AMES SALMONELLA TYPHIMURIUM, Strain/Indicator: TA1537, Metabolic Activation: RAT LIVER S-9, PHENOBARBITAL AND BETA-NAPHTHOFLAVONE, Method: PREINCUBATION) was “inactive; negative”. The mutagenic call [12] was “inactive; negative”, the mutagenic call (Test System: E.COLI, Strain/Indicator: WP2UVRA, Metabolic Activation: NONE, Method: PREINCUBATION) was “inactive; negative” and the mutagenic call (Test System: E.COLI, Strain/Indicator: WP2UVRA, Metabolic Activation: RAT LIVER S-9, PHENOBARBITAL AND BETA-NAPHTHOFLAVONE, Method: PREINCUBATION) was “inactive; negative”.
For `O=C(O)Nc1ccc(-c2ccccc2)cc1`, the mutagenic call [2] was “active; positive”, the mutagenic call (Test System: AMES SALMONELLA TYPHIMURIUM, Strain/Indicator: TA98, Metabolic Activation: RAT, LIVER, CYTOSOL, Method: PREINCUBATION) was “active; positive” and the mutagenic call (Test System: AMES SALMONELLA TYPHIMURIUM, Strain/Indicator: TA98, Metabolic Activation: RAT, LIVER, MICROSOMES, Method: PREINCUBATION) was “active; positive”.
For `O=C=Nc1ccc(Cc2ccccc2N=C=O)cc1`, the mutagenic call (Test System: AMES SALMONELLA TYPHIMURIUM, Strain/Indicator: TA100, Metabolic Activation: RAT, LIVER, S-9, AROCLOR 1254 (30%), Method: STANDARD PLATE) was “inactive; negative”.
For `O=PO.O=PO.[Mn+2]`, the mutagenic call [13] was “inactive; negative”, the mutagenic call [14] was “inactive; negative” and the mutagenic call [15] was “inactive; negative”. For the same molecule, the mutagenic call [16] was “inactive; negative”, the mutagenic call (Test System: AMES SALMONELLA TYPHIMURIUM, Strain/Indicator: TA1535, Metabolic Activation: NONE, Method: STANDARD PLATE) was “inactive; negative” and the mutagenic call (Test System: AMES SALMONELLA TYPHIMURIUM, Strain/Indicator: TA1535, Metabolic Activation: RAT, LIVER, S-9, AROCLOR 1254, Method: STANDARD PLATE) was “inactive; negative”. For the same molecule, the mutagenic call (Test System: AMES SALMONELLA TYPHIMURIUM, Strain/Indicator: TA1537, Metabolic Activation: NONE, Method: STANDARD PLATE) was “inactive; negative”, the mutagenic call (Test System: AMES SALMONELLA TYPHIMURIUM, Strain/Indicator: TA1537, Metabolic Activation: RAT, LIVER, S-9, AROCLOR 1254, Method: STANDARD PLATE) was “inactive; negative” and the mutagenic call (Test System: AMES SALMONELLA TYPHIMURIUM, Strain/Indicator: TA1538, Metabolic Activation: NONE, Method: STANDARD PLATE) was “inactive; negative”. The mutagenic call [17] was “inactive; negative”, the mutagenic call (Test System: E. COLI, Strain/Indicator: WP2, Metabolic Activation: NONE, Method: STANDARD PLATE) was “inactive; negative” and the mutagenic call (Test System: E. COLI, Strain/Indicator: WP2, Metabolic Activation: RAT, LIVER, S-9, AROCLOR 1254, Method: STANDARD PLATE) was “inactive; negative”.
With `Nc1ccc(/C=C/C(=O)O)cc1` the mutagenic call [13] was “inactive; negative”, the mutagenic call [14] was “inactive; negative” and the mutagenic call [5] was “inactive; negative”. The mutagenic call [15] was “inactive; negative”, the mutagenic call (Test System: AMES SALMONELLA TYPHIMURIUM, Strain/Indicator: TA100, Metabolic Activation: RAT, LIVER, S-9, AROCLOR 1254, Method: PREINCUBATION) was “inactive; negative” and the mutagenic call [16] was “inactive; negative”.
With `CC1(C)Cc2ncccc2-c2nc(N)sc21` the mutagenic call [17] was “active; positive”.
`C=CCOC(=O)C=C` was tested, and the mutagenic call (Test System: AMES SALMONELLA TYPHIMURIUM, Strain/Indicator: TA97, Metabolic Activation: HAMSTER, LIVER, S-9, AROCLOR 1254 (10 OR 30%), Method: PREINCUBATION) was “inactive; negative”, the mutagenic call (Test System: AMES SALMONELLA TYPHIMURIUM, Strain/Indicator: TA97, Metabolic Activation: NONE, Method: PREINCUBATION) was “inactive; negative” and the mutagenic call (Test System: AMES SALMONELLA TYPHIMURIUM, Strain/Indicator: TA97, Metabolic Activation: RAT, LIVER, S-9, AROCLOR 1254 (10 OR 30%), Method: PREINCUBATION) was “inactive; negative”. For the same molecule, the mutagenic call [1] was “inactive; negative”, the mutagenic call (Test System: AMES SALMONELLA TYPHIMURIUM, Strain/Indicator: TA98, Metabolic Activation: HAMSTER, LIVER, S-9, AROCLOR 1254 (30%), Method: PREINCUBATION) was “inactive; negative” and the mutagenic call [2] was “inactive; negative”. The mutagenic call [3] was “inactive; negative”, the mutagenic call (Test System: AMES SALMONELLA TYPHIMURIUM, Strain/Indicator: TA98, Metabolic Activation: RAT, LIVER, S-9, AROCLOR 1254 (30%), Method: PREINCUBATION) was “inactive; negative” and the mutagenic call [4] was “inactive; negative”. For the same molecule, the mutagenic call (Test System: AMES SALMONELLA TYPHIMURIUM, Strain/Indicator: TA100, Metabolic Activation: HAMSTER, LIVER, S-9, AROCLOR 1254 (30%), Method: PREINCUBATION) was “inactive; negative”, the mutagenic call [5] was “inactive; negative” and the mutagenic call [6] was “inactive; negative”. The mutagenic call (Test System: AMES SALMONELLA TYPHIMURIUM, Strain/Indicator: TA100, Metabolic Activation: RAT, LIVER, S-9, AROCLOR 1254 (30%), Method: PREINCUBATION) was “inactive; negative”, the mutagenic call [7] was “inactive; negative” and the mutagenic call (Test System: AMES SALMONELLA TYPHIMURIUM, Strain/Indicator: TA1535, Metabolic Activation: HAMSTER, LIVER, S-9, AROCLOR 1254 (30%), Method: PREINCUBATION) was “inactive; negative”. For the same molecule, the mutagenic call [8] was “inactive; negative”, the mutagenic call [9] was “inactive; negative” and the mutagenic call (Test System: AMES SALMONELLA TYPHIMURIUM, Strain/Indicator: TA1535, Metabolic Activation: RAT, LIVER, S-9, AROCLOR 1254 (30%), Method: PREINCUBATION) was “inactive; negative”. For the same molecule, the mutagenic call [10] was “inactive; negative”, the mutagenic call [11] was “inactive; negative” and the mutagenic call [12] was “inactive; negative”.
